From the supplement of paper PMC9663587

Legend:
[1] = compound: T1, CN(C)C/C=C/C(=O)Nc1ccc(C(=O)Nc2cccc(Nc3ncc(Cl)c(-c4c[nH]c5ccccc45)n3)c2)cc1 [THZ1]; experiment: GR value, 72 h; higher = faster growth (1 = untreated, <0 = killing);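 further: breast cancer and non-malignant breast epithelial lines, nine half-log doses, viable cells counted by Hoechst and LIVE/DEAD dye imaging versus time-zero plates and DMSO controls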
[2] = compound: T2, CCOc1cc2ncc(C#N)c(Nc3ccc(OCc4ccccn4)c(Cl)c3)c2cc1NC(=O)/C=C/CN(C)C [Neratinib/HKI272]; experiment: as above
[3] = compound: T1, THZ1; experiment: increase in dead-cell fraction, 72 h; higher = more death;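 further: breast cancer cell lines in 384-well plates, stained with Hoechst plus LIVE/DEAD far red dye and imaged, cells above an LDR intensity threshold counted dead, Hoechst-negative corpses included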
[4] = compound: CN1CC[C@H](c2c(O)cc(O)c3c(=O)cc(-c4ccccc4Cl)oc23)[C@H](O)C1 [Flavopiridol]; experiment: as above
[5] = compound: CN(C)C(=O)c1cc2cnc(Nc3ccc(N4CCNCC4)cn3)nc2n1C1CCCC1 [LEE011/Ribociclib]; experiment: as above
[6] = compound: CCN1CCN(Cc2ccc(Nc3ncc(F)c(-c4cc(F)c5nc(C)n(C(C)C)c5c4)n3)nc2)CC1; experiment: as above
[7] = compound: CN(C)C/C=C/C(=O)Nc1ccc(C(=O)N2CCC[C@@H](Nc3ncc(Cl)c(-c4c[nH]c5ccccc45)n3)C2)cc1 [THZ531]; experiment: as above
[8] = compound: CCc1cnn2c(NCc3ccc[n+]([O-])c3)cc(N3CCCC[C@H]3CCO)nc12; experiment: as above
[9] = compound: T2, Neratinib/HKI272; experiment: as above
[10] = compound: CC(=O)c1c(C)c2cnc(Nc3ccc(N4CCN(CCOCCOCCOCCNC(=O)COc5cccc6c5C(=O)N(C5CCC(=O)NC5=O)C6=O)CC4)cn3)nc2n(C2CCCC2)c1=O [BSJ-03-123]; experiment: as above
[11] = compound: CC(=O)c1c(C)c2cnc(Nc3ccc(N4CCNCC4)cn3)nc2n(C2CCCC2)c1=O; experiment: as above
[12] = compound: C=CC(=O)Nc1ccc(C(=O)Nc2[nH]nc3c2CN(C(=O)N[C@H](CN(C)C)c2ccccc2)C3(C)C)cc1 [YKL-5-124]; experiment: as above

With HS578T the GR value ([1]; 0.0001 µM) was 0.977 GR, the GR value ([1]; 0.0003162 µM) was 1.03 GR and the GR value ([1]; 0.001 µM) was 0.99 GR. It also gave a GR value ([1]; 0.003162 µM) of 1.03 GR, a GR value ([1]; 0.01 µM) of 0.784 GR and a GR value ([1]; 0.03162 µM) of 0.125 GR. It also gave a GR value ([1]; 0.1 µM) of -0.199 GR, a GR value ([1]; 0.3162 µM) of -0.251 GR and a GR value ([1]; 1 µM) of -0.371 GR. For the same cell line, the GR value ([2]; 0.0003162 µM) was 1.06 GR, the GR value ([2]; 0.001 µM) was 1 GR and the GR value ([2]; 0.003162 µM) was 1.05 GR. It also gave a GR value ([2]; 0.01 µM) of 0.98 GR, a GR value ([2]; 0.03162 µM) of 1 GR and a GR value ([2]; 0.1 µM) of 0.888 GR. It also gave a GR value ([2]; 0.3162 µM) of 0.613 GR, a GR value ([2]; 1 µM) of 0.427 GR and a GR value ([2]; 3.162 µM) of -0.155 GR. The “increase in dead-cell fraction” value ([3]; 0.0001 µM) was -0.0022, the “increase in dead-cell fraction” value ([3]; 0.0003162 µM) was 0.0144 and the “increase in dead-cell fraction” value ([3]; 0.001 µM) was 0.0176. For the same cell line, the “increase in dead-cell fraction” value ([3]; 0.003162 µM) was -0.0036, the “increase in dead-cell fraction” value ([3]; 0.01 µM) was 0 and the “increase in dead-cell fraction” value ([3]; 0.03162 µM) was 0.11. For the same cell line, the “increase in dead-cell fraction” value ([3]; 0.1 µM) was 0.174, the “increase in dead-cell fraction” value ([3]; 0.3162 µM) was 0.216 and the “increase in dead-cell fraction” value ([3]; 1 µM) was 0.22. The “increase in dead-cell fraction” value ([4]; 0.0001 µM) was 0.0048, the “increase in dead-cell fraction” value ([4]; 0.0003162 µM) was -0.0091 and the “increase in dead-cell fraction” value ([4]; 0.001 µM) was 0.0178. The “increase in dead-cell fraction” value ([4]; 0.003162 µM) was -0.0177, the “increase in dead-cell fraction” value ([4]; 0.01 µM) was 0.0333 and the “increase in dead-cell fraction” value ([4]; 0.03162 µM) was -0.0109. The “increase in dead-cell fraction” value ([4]; 0.1 µM) was 0.0094, the “increase in dead-cell fraction” value ([4]; 0.3162 µM) was 0.0312 and the “increase in dead-cell fraction” value ([4]; 1 µM) was 0.288. For the same cell line, the “increase in dead-cell fraction” value ([5]; 0.001 µM) was 0.0899, the “increase in dead-cell fraction” value ([5]; 0.003162 µM) was 0.0789 and the “increase in dead-cell fraction” value ([5]; 0.01 µM) was 0.105. The “increase in dead-cell fraction” value ([5]; 0.03162 µM) was 0.0986, the “increase in dead-cell fraction” value ([5]; 0.1 µM) was 0.196 and the “increase in dead-cell fraction” value ([5]; 0.3162 µM) was 0.2. For the same cell line, the “increase in dead-cell fraction” value ([5]; 1 µM) was 0.245, the “increase in dead-cell fraction” value ([5]; 3.162 µM) was 0.248 and the “increase in dead-cell fraction” value ([5]; 10 µM) was 0.243. The “increase in dead-cell fraction” value ([6]; 0.001 µM) was 0.0038, the “increase in dead-cell fraction” value ([6]; 0.003162 µM) was 0.0096 and the “increase in dead-cell fraction” value ([6]; 0.01 µM) was 0.0242. The “increase in dead-cell fraction” value ([6]; 0.03162 µM) was 0.0401, the “increase in dead-cell fraction” value ([6]; 0.1 µM) was 0.0754 and the “increase in dead-cell fraction” value ([6]; 0.3162 µM) was 0.0958. For the same cell line, the “increase in dead-cell fraction” value ([6]; 1 µM) was 0.171, the “increase in dead-cell fraction” value ([6]; 3.162 µM) was 0.511 and the “increase in dead-cell fraction” value ([6]; 10 µM) was 0.844. The “increase in dead-cell fraction” value ([7]; 0.0001 µM) was 0.0179, the “increase in dead-cell fraction” value ([7]; 0.0003162 µM) was 0.0236 and the “increase in dead-cell fraction” value ([7]; 0.001 µM) was -0.0057. The “increase in dead-cell fraction” value ([7]; 0.003162 µM) was 0.0346, the “increase in dead-cell fraction” value ([7]; 0.01 µM) was -0.004 and the “increase in dead-cell fraction” value ([7]; 0.03162 µM) was 0.0086. For the same cell line, the “increase in dead-cell fraction” value ([7]; 0.1 µM) was 0.182, the “increase in dead-cell fraction” value ([7]; 0.3162 µM) was 0.2 and the “increase in dead-cell fraction” value ([7]; 1 µM) was 0.283. For the same cell line, the “increase in dead-cell fraction” value ([8]; 0.0001 µM) was 0.0032, the “increase in dead-cell fraction” value ([8]; 0.0003162 µM) was -0.0013 and the “increase in dead-cell fraction” value ([8]; 0.001 µM) was 0.0026. For the same cell line, the “increase in dead-cell fraction” value ([8]; 0.003162 µM) was 0.0085, the “increase in dead-cell fraction” value ([8]; 0.01 µM) was 0.187 and the “increase in dead-cell fraction” value ([8]; 0.03162 µM) was 0.415. The “increase in dead-cell fraction” value ([8]; 0.1 µM) was 0.441, the “increase in dead-cell fraction” value ([8]; 0.3162 µM) was 0.423 and the “increase in dead-cell fraction” value ([8]; 1 µM) was 0.443. The “increase in dead-cell fraction” value ([9]; 0.0003162 µM) was 0.0023, the “increase in dead-cell fraction” value ([9]; 0.001 µM) was 0.0036 and the “increase in dead-cell fraction” value ([9]; 0.003162 µM) was 0.0026. The “increase in dead-cell fraction” value ([9]; 0.01 µM) was 0.0046, the “increase in dead-cell fraction” value ([9]; 0.03162 µM) was 0.0039 and the “increase in dead-cell fraction” value ([9]; 0.1 µM) was 0.0039. The “increase in dead-cell fraction” value ([9]; 0.3162 µM) was 0.0303, the “increase in dead-cell fraction” value ([9]; 1 µM) was 0.061 and the “increase in dead-cell fraction” value ([9]; 3.162 µM) was 0.5. The “increase in dead-cell fraction” value ([10]; 0.001 µM) was 0.0192, the “increase in dead-cell fraction” value ([10]; 0.003162 µM) was 0.0459 and the “increase in dead-cell fraction” value ([10]; 0.01 µM) was 0.0053. The “increase in dead-cell fraction” value ([10]; 0.03162 µM) was 0.0194, the “increase in dead-cell fraction” value ([10]; 0.1 µM) was 0.0184 and the “increase in dead-cell fraction” value ([10]; 0.3162 µM) was 0.0238. The “increase in dead-cell fraction” value ([10]; 1 µM) was 0.034, the “increase in dead-cell fraction” value ([10]; 3.162 µM) was 0.0445 and the “increase in dead-cell fraction” value ([10]; 10 µM) was 0.267. The “increase in dead-cell fraction” value ([11]; 0.0003162 µM) was -0.0068, the “increase in dead-cell fraction” value ([11]; 0.001 µM) was 0.0083 and the “increase in dead-cell fraction” value ([11]; 0.003162 µM) was 0.0012. For the same cell line, the “increase in dead-cell fraction” value ([11]; 0.01 µM) was 0.0138, the “increase in dead-cell fraction” value ([11]; 0.03162 µM) was 0.0151 and the “increase in dead-cell fraction” value ([11]; 0.1 µM) was 0.0427. The “increase in dead-cell fraction” value ([11]; 0.3162 µM) was 0.052, the “increase in dead-cell fraction” value ([11]; 1 µM) was 0.0736 and the “increase in dead-cell fraction” value ([11]; 3.162 µM) was 0.116. The “increase in dead-cell fraction” value ([12]; 0.001 µM) was 0.0377, the “increase in dead-cell fraction” value ([12]; 0.003162 µM) was 0.0487 and the “increase in dead-cell fraction” value ([12]; 0.01 µM) was 0.0429. The “increase in dead-cell fraction” value ([12]; 0.03162 µM) was 0.127, the “increase in dead-cell fraction” value ([12]; 0.1 µM) was 0.139 and the “increase in dead-cell fraction” value ([12]; 0.3162 µM) was 0.155. For the same cell line, the “increase in dead-cell fraction” value ([12]; 1 µM) was 0.13, the “increase in dead-cell fraction” value ([12]; 3.162 µM) was 0.125 and the “increase in dead-cell fraction” value ([12]; 10 µM) was 0.492.
